US7572606B1 (Nereus Pharmaceuticals, Inc., priority 2005, dated 2009)
Several values for one entry are separate records, joined by “and”; a condition that tells them apart may be missing. Equal entries are not always repeated. Where two headings read alike, the source gives them in different places.

Legend:
[1] = tested on: B16-F10; assay: Cell growth inhibition, resazurin, 48 h; format: cell-based, mouse; conditions: B16-F10, 48 h drug exposure
Procedure: (§1) RPMI 8226 (CCL-155), HT-29 (HTB-38), and B16-F10 (CRL-6475) cells were purchased from ATCC. RPMI 8226 cells were maintained in RPMI 1640 media supplemented with 10% (v/v) FBS, 2 mM L-glutamine, 1 mM sodium pyruvate and Penicillin/Streptomycin at 100 IU/ml and 100 μg/ml, respectively. HT-29 cells were maintained in McCoys 5A supplemented with 10% (v/v) FBS, 2 mM L-glutamine, 1 mM sodium pyruvate, 1% (v/v) non-essential amino acids, 10 mM HEPES and Penicillin/Streptomycin at 100 IU/ml and 100 μg/ml, respectively. B16-F10 cells were maintained in DMEM supplemented with 10% (v/v) FBS, 2 mM L-glutamine, 10 mM HEPES and Penicillin/Streptomycin at 100 IU/ml and 100 μg/ml, respectively.
(§2) RPMI 8226 cells were seeded at 2×10^4 cells/well in 90 μl RPMI media containing 10% (v/v) FBS or 1% (v/v) FBS into 96 well black-walled, clear-bottom tissue culture plates. […] Formulae II-16, II-17 and Formula II-18 were serially diluted in media containing 1% or 10% FBS and added in triplicate to the test wells. […] The final concentration of Formula II-18 ranged from 2 μM to 630 pM.

[2] = tested on: HT-29; assay: Cell growth inhibition, resazurin, 48 h; format: cell-based, human; conditions: HT-29, 48 h drug exposure
Procedure: as §1, §2

[3] = tested on: MDA-MB-231; assay: Cell growth inhibition, resazurin, 48 h; format: cell-based, human; conditions: MDA-MB-231, 48 h drug exposure
[4] = tested on: NCI-H292; assay: Cell growth inhibition, resazurin, 48 h; format: cell-based, human; conditions: NCI-H292, 48 h drug exposure
[5] = tested on: OVCAR-3; assay: Cell growth inhibition, resazurin, 48 h; format: cell-based, human; conditions: OVCAR-3, 48 h drug exposure
[6] = biological target: T1, trypsin-like activity of rabbit muscle 20S proteasome (Oryctolagus cuniculus, UniProt G1SWK8); assay: In vitro inhibition of 20S proteasome, Boc-LRR-AMC; format: biochemical; conditions: for EC50: purified rabbit 20S proteasome, Boc-LRR-AMC; for inhibition of the trypsin-like activity of the 20S proteasome: under the conditions tested
T1 construct: EC50 Trypsin-like; other: purified rabbit 20S proteasome, Boc-LRR-AMC; other: under the conditions tested
T1 sequence (G1SWK8 1-271): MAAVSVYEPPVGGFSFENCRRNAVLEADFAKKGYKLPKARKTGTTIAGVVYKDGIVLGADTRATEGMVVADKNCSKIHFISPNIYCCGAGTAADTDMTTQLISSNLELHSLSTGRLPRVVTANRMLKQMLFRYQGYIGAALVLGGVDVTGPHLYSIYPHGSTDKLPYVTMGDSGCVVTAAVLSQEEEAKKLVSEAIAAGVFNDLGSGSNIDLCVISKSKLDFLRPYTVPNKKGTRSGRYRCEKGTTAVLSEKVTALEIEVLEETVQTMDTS

[7] = tested on: NF-κB-mediated luciferase activity in HEK293 NF-κB/Luc cells; assay: NF-κB-mediated luciferase reporter gene assay; format: cell-based, human; conditions: for EC50: 6 h TNF-α stimulation; for luciferase activity upon TNF-α stimulation: pretreatment of NF-κB/Luc 293 cells
Procedure: The HEK293 NF-κB/luciferase reporter cell line is a derivative of the human embryonic kidney cell line (ATCC; CRL-1573) and carries a luciferase reporter gene under the regulation of 5×NF-κB binding sites. […] When performing the luciferase assay, the DMEM basal medium was replaced with phenol-red free DMEM basal medium and the G418 was omitted.
For NF-κB-mediated luciferase assays, HEK293 NF-κB/luciferase cells were seeded at 1.5×10^4 cells/well in 90 μl phenol-red free DMEM complete medium into Corning 3917 white opaque-bottom tissue culture plates. For Formulae II-2, II-4, II-5A and II-18, a 400 μM starting dilution was made in 100% DMSO and this dilution was used to generate an 8-point half log dilution series. […] For formula II-20, a 2.5 mM or 8 mM starting dilution was made in 100% DMSO and the final test concentrations ranged from 6.3 μM to 2.0 nM or 20 μM to 6.3 nM respectively. The plates were returned to the incubator for 1 hour. After 1 hr pretreatment, 10 μl of a 50 ng/ml TNF-α solution, prepared in the phenol-red free DMEM medium was added, and the plates were incubated for an additional 6 hours.
At the end of the TNF-α stimulation, 100 μl of Steady Lite HTS luciferase reagent (Packard Bioscience) was added to each well and the plates were left undisturbed for 10 min at room temperature before measuring the luciferase activity. The relative luciferase units (RLU) were measured by using a Fusion microplate fluorometer (Packard Bioscience).
NF-κB inducible luciferase activity was measured at 6 hours.

[8] = tested on: PC-3; assay: Cell growth inhibition, resazurin, 48 h; conditions: Homo sapiens, PC-3, 48 h, PC-3, 48 h drug exposure
[9] = biological target: caspase-like (PGPH) activity of rabbit muscle 20S proteasome (Oryctolagus cuniculus, UniProt A0A5F9DQW2); assay: In vitro inhibition of 20S proteasome, Z-LLE-AMC; conditions: purified rabbit 20S proteasome, Z-LLE-AMC
Chain of caspase-like (PGPH) activity of rabbit muscle 20S proteasome (A0A5F9DQW2 1-212): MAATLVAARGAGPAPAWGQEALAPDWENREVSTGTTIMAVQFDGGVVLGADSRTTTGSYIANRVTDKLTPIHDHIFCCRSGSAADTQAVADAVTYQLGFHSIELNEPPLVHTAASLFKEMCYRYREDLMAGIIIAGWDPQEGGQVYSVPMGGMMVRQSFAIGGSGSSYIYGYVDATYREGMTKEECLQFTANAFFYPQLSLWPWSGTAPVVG

[10] = biological target: T2, chymotrypsin-like activity of rabbit muscle 20S proteasome (Oryctolagus cuniculus, UniProt G1T4Q9); assay: In vitro inhibition of 20S proteasome, suc-LLVY-AMC
T2 sequence (G1T4Q9 1-263): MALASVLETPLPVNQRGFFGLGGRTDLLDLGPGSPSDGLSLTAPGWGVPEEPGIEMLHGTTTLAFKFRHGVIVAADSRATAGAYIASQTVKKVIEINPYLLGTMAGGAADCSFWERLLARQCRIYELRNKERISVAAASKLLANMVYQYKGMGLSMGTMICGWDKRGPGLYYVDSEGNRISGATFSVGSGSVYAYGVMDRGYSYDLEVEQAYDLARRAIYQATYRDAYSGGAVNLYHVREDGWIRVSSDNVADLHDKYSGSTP

[11] = tested on: RPMI 8226; assay: Cell growth inhibition, resazurin, 48 h
Procedure: as §1, §2

[12] = tested on: U266; assay: Cell growth inhibition, resazurin, 48 h; format: cell-based, human; conditions: Homo sapiens, U-266, 48 h, U266, 48 h drug exposure; read-out: EC50
[13] = tested on: MES-SA; assay: Cell growth inhibition, resazurin, 48 h; conditions: 48 h drug exposure
Procedure: (§3) Concentrations ranging from 6.32 μM to 2 nM were tested for II-2 and II-4.

[14] = tested on: HL-60/MX2; assay: Cell growth inhibition, resazurin, 48 h; conditions: HL-60/MX2, 48 h drug exposure
Procedure: (§4) The DNA binding agent Mitoxantrone was included as a control, as HL-60/MX2 cells are reported to be resistant to this chemotherapeutic agent (Harker W. G. et al. 1989).
as §3

[15] = tested on: HL-60; assay: Cell growth inhibition, resazurin, 48 h; conditions: HL-60, 48 h drug exposure
Procedure: as §4, §3

[16] = read-out: EC50 Caspase-like (PGPH)
[17] = read-out: EC50 Chymotrypsin-like, purified rabbit 20S proteasome, suc-LLVY-AMC

With C[C@@]12OC(=O)[C@]1([C@@H](O)[C@H]1CCC[C@H]3O[C@@H]13)NC(=O)[C@@H]2CCCl [Formula II-5A] the EC50 ([1]; Mus musculus, B16-F10, 48 h) was 78 ± 11 nM, the EC50 ([2]; Homo sapiens, HT-29, 48 h) was 67 ± 17 nM and the EC50 ([3]; Homo sapiens, MDA-MB-231, 48 h) was 61 ± 4.6 nM. For the same compound, the EC50 ([4]; Homo sapiens, NCI-H292, 48 h) was 102 ± 19 nM, the EC50 ([5]; Homo sapiens, OVCAR-3, 48 h) was 80 nM and the EC50 [5] was 64 nM. For the same compound, the EC50 [6] was 90 nM, the “inhibition of the trypsin-like activity of the 20S proteasome” value (“inhibition” for short) [6] was “able to inhibit the trypsin-like activity” and the EC50 ([7]; 1 h pretreatment) was 33 nM. For the same compound, the “luciferase activity upon TNF-α stimulation” value [7] was “dose-dependent decrease of luciferase activity”, the EC50 [8] was 109 ± 15 nM and the EC50 [9, 16] was 535 nM and 438 nM. The EC50 [10] was 2 to 11 nM and the EC50 [10, 17] was 7 nM.
Compound C[C@@]12OC(=O)[C@]1([C@@H](O)[C@H]1CCC[C@@H]3O[C@H]13)NC(=O)[C@@H]2CCCl [Formula II-5B] has an EC50 [1] of 1140 nM, an EC50 ([1]; Mus musculus, B16-F10, 48 h) of 1270 nM and an EC50 [2] of 1210 nM. The EC50 [3] was 957 nM, the EC50 ([4]; Homo sapiens, NCI-H292, 48 h) was 992 nM and the EC50 [4] was 1250 nM. For the same compound, the EC50 ([5]; Homo sapiens, OVCAR-3, 48 h) was 1320 nM, the “inhibition” value [6] was “able to inhibit the trypsin-like activity” and the EC50 ([7]; 1 h pretreatment) was 279 nM. The “luciferase activity upon TNF-α stimulation” value [7] was “dose-dependent decrease of luciferase activity”, the EC50 [8] was 1790 nM and the EC50 ([9]; read-out: EC50 Caspase-like) was 3800 nM and 2900 nM. It also gave an EC50 [10] of 13 to 88 nM and an EC50 [10, 17] of 85 nM.
C[C@@]12OC(=O)[C@]1([C@@H](O)[C@@H]1C=CCCC1)NC(=O)[C@@H]2CCBr [Formula II-18] showed an EC50 ([11]; Homo sapiens, RPMI-8226, 48 h, RPMI 8226, 48 h drug exposure) of 6.3 nM, an EC50 ([11]; Homo sapiens, RPMI-8226, read-out: 1% FBS, EC50, Mean, RPMI 8226, media containing 1% FBS, mean of two) of 14 nM and an EC50 ([11]; Homo sapiens, RPMI-8226, read-out: 10% FBS, EC50, Mean, RPMI 8226, media containing 10% FBS, mean of two) of 20 nM. The “% cytotoxicity” value ([11]; human, 48 h) was 94, 94%, the EC50 [12] was 4.2 nM and the EC50 [13] was 17 nM. The EC50 ([13]; Homo sapiens, 48 h) was 22 nM, the EC50 [14] was 18 nM and the EC50 ([14]; Homo sapiens, HL60/MX2, 48 h) was 19 nM. The EC50 [15] was 23 nM, the EC50 ([15]; Homo sapiens, HL-60, 48 h) was 27 nM and the “inhibition” value [6] was “able to inhibit the trypsin-like activity”. For the same compound, the EC50 ([7]; 1 h pretreatment, listed as II-18, read-out: EC50) was 11 nM, the EC50 ([7]; 1 h pretreatment, read-out: EC50) was 11 nM and the EC50 ([7]; Homo sapiens, HEK293, 1 h pretreatment, read-out: EC50) was 9 nM. The “luciferase activity upon TNF-α stimulation” value [7] was “dose-dependent decrease of luciferase activity”, the EC50 [9, 16] was 286 nM and 213 nM and the EC50 ([9]; read-out: EC50 Caspase-like (PGPH), listed as II-18) was 286 nM and 213 nM.
C[C@@]12OC(=O)[C@]1([C@@H](O)[C@@H]1C=CCCC1)NC(=O)[C@@H]2CCI [Formula II-19] was tested, and the EC50 ([1]; Mus musculus, B16-F10, 48 h) was 13 ± 1.9 nM, the EC50 ([2]; Homo sapiens, HT-29, 48 h) was 11 ± 1.6 nM and the EC50 ([3]; Homo sapiens, MDA-MB-231, 48 h) was 14 ± 3.2 nM. For the same compound, the EC50 ([4]; Homo sapiens, NCI-H292, 48 h) was 27 ± 3.8 nM, the EC50 ([5]; Homo sapiens, OVCAR-3, 48 h) was 24 nM and the EC50 [5] was 20 nM. The EC50 ([11]; RPMI 8226, 48 h drug exposure) was 6 nM and 7 nM, the EC50 [6] was 15 nM and the “inhibition” value [6] was “able to inhibit the trypsin-like activity”. The EC50 ([7]; 1 h pretreatment) was 10 nM, the EC50 ([7]; 1 h pretreatment, listed as II-19) was 10 nM and the EC50 ([7]; Homo sapiens, HEK293, 1 h pretreatment) was 7 nM. For the same compound, the “luciferase activity upon TNF-α stimulation” value [7] was “dose-dependent decrease of luciferase activity”, the EC50 [8] was 29 ± 4 nM and the EC50 [9, 16] was 739 nM. For the same compound, the EC50 [10] was 2 to 11 nM.
